Patent US20090306171A1, “INDOLE COMPOUNDS HAVING C4-AMIDE SUBSTITUENTS AND USE THEREOF AS PHOSPHOLIPASE-A2 INHIBITORS” (priority 2005, published 2009)

Experiments:
[1] = molecular target: human PLA2 IB enzyme (Homo sapiens, UniProt P04054); details: pyrene substrate release from vesicles; Singer, Ghomashchi et al. 2002; read-out: IC50 value versus the human PLA2 IB enzyme; cited from earlier work
[2] = Stability at low pH; format: physicochemical
[3] = Example 5C serum cholesterol and triglycerides, mice on high fat/high sucrose diabetogenic diet; format: in vivo; details: 10 weeks
Method: (§1) ILY-4001 (FIG. 2) was evaluated as a PLA2 IB inhibitor in a set of experiments using wild-type mice and genetically deficient PLA2 (−/−) mice (also referred to herein as PLA2 knock-out (KO) mice). In these experiments, wild-type and PLA2 (−/−) mice were maintained on a high fat/high sucrose diet, details of which are described below.
(§2) Briefly, four groups were set up, each having six mice. Three of the groups included six wild-type PLA2 (+/+) mice in each group (eighteen mice total), and one of the groups included six genetically deficient PLA2 (−/−) mice. One of the wild-type groups was used as a wild-type control group, and was not treated with ILY-4001. The other two wild-type groups were treated with ILY-4001-one group at a lower dose (indicated as “L” in Table 1) of 25 mg/kg/day, and the other at a higher dose (indicated as “H” in Table 1) of 90 mg/kg/day. The group comprising the PLA2 (−/−) mice was used as a positive control group.
(§3) The experimental protocol used in this study was as follows. The four groups of mice, including wild type and isogenic PLA2 (−/−) C57BL/J mice were acclimated for three days on a low fat/low carbohydrate diet After the three day acclimation phase, the animals were fasted overnight and serum samples taken to establish baseline plasma cholesterol, triglyceride, and glucose levels, along with baseline body weight. The mice in each of the treatment groups were then fed a high fat/high sucrose diabetogenic diet (Research Diets D12331). 1000 g of the high fat/high sucrose D12331 diet was composed of casein (228 g), DL-methionine (2 g), maltodextrin 10 (170 g), sucrose (175 g), soybean oil (25 g), hydrogenated coconut oil (333.5 g), mineral mix S10001 (40 g), sodium bicarbonate (10.5 g), potassium citrate (4 g), vitamin mix V10001 (10 g), and choline bitartrate (2 g). This diet was supplemented with ILY-4001 treatments such that the average daily dose of the compound ingested by a 25 g mouse was: 0 mg/kg/day (wild-type control group and PLA2 (−/−) control group); 25 mg/kg/day (low-dose wild-type treatment group), or 90 mg/kg/day (high-dose wild-type treatment group). The animals were maintained on the high fat/high sucrose diet, with the designated ILY-4001 supplementation, for a period of ten weeks.
Body weight measurements were taken for all animals in all treatment and control groups at the beginning of the treatment period and at 4 weeks and 10 weeks after initiation of the study. (See Example 5A). Blood draws were also taken at the beginning of the treatment period (baseline) and at 4 weeks and 10 weeks after initiation of the study, in order to determine fasting glucose (See Example 5B). Cholesterol and triglyceride levels were determined from blood draws taken at the beginning of the treatment (baseline) and at ten weeks. […]

[4] = tested on: Caco-2 monolayers; assay: Example 6B Caco-2 permeability study; format: in vitro ADME, human; details: for apparent permeability: apical to basolateral, Caco-2 monolayers
Method: The culture medium was refreshed every 48 hours.
Papp=(dQ/dt)×(1/C0)×(1/A)

[5] = Example 6C pharmokinetic study (IV and oral); format: in vivo, mice; details: 30 mg/kg oral
Excerpt: This example characterized ILY-4001 [2-(3-(2-amino-2-oxoacetyl)-1-(biphenyl-2-ylmethyl)-2-methyl-1H-indol-4-yloxy)acetic acid], alternatively referred to herein as methyl indoxam, with respect to activity, as determined by IC50 assay (Example 6A), with respect to cell absorption, as determined by in-vitro Caco-2 assay (Example 6B) and with respect to bioavailability, as determined using in-vivo mice studies (Example 6C).
This example evaluated the bioavailability of ILY-4001 [2-(3-(2-amino-2-oxoacetyl)-1-(biphenyl-2-ylmethyl)-2-methyl-1H-indol-4-yloxy)acetic acid], alternatively referred to herein as methyl indoxam. […]
Bioavailability was calculated as a ratio of AUC-oral/AUC-intravenous (IV). To determine this ratio, a first set of subject animals were given a measured intravenous (IV) dose of ILY-4001, followed by a determination of ILY-4001 levels in the blood at various time points after administration (e.g., 5 minutes through 24 hours). Another second set of animals was similarly dosed using oral administration, with blood levels of ILY-4001 determined at various time points after administration (e.g., 30 minutes through 24 hours). The level of ILY-4001 in systemic circulation were determined by generally accepted methods (for example as described in Evans, G., A Handbook of Bioanalysis and Drug Metabolism. Boca Raton, CRC Press (2004)). […]

[6] = Example 5A body weight gain, mice on high fat/high sucrose diabetogenic diet; format: in vivo; details: for body weight gain compared to the wild-type control group: week 4 and week 10
Method: as §1, §2, §3
Body weight measurements were taken for all animals in all treatment and control groups at the beginning of the treatment period and at 4 weeks and 10 weeks after initiation of the study. (See Example 5A). Blood draws were also taken at the beginning of the treatment period (baseline) and at 4 weeks and 10 weeks after initiation of the study, in order to determine fasting glucose (See Example 5B). Cholesterol and triglyceride levels were determined from blood draws taken at the beginning of the treatment (baseline) and at ten weeks. (See Example 5C).
In the study generally described above in Example 5, body weight measurements were taken for all animals in all treatment and control groups at the beginning of the treatment period and at 4 weeks and 10 weeks after initiation of the study.

[7] = molecular target: mouse PLA2 IB enzyme (Mus musculus, UniProt Q9Z0Y2); details: pyrene substrate release from vesicles; Singer, Ghomashchi et al. 2002; read-out: IC50 value versus the mouse PLA2 IB enzyme; cited from earlier work
mouse PLA2 IB enzyme, sequence (Q9Z0Y2 23-146): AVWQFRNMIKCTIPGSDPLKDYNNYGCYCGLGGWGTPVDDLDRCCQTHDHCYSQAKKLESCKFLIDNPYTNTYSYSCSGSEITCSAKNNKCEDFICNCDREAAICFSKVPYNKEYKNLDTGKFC

[8] = Example 5B fasting serum glucose, mice on high fat/high sucrose diabetogenic diet; format: in vivo; details: low dose (25 mg/kg/day)
Method: as §1, §2
The experimental protocol used in this study was as follows. […]
Body weight measurements were taken for all animals in all treatment and control groups at the beginning of the treatment period and at 4 weeks and 10 weeks after initiation of the study. […] Cholesterol and triglyceride levels were determined from blood draws taken at the beginning of the treatment (baseline) and at ten weeks. […]

human PLA2 IB enzyme, sequence (P04054 23-148): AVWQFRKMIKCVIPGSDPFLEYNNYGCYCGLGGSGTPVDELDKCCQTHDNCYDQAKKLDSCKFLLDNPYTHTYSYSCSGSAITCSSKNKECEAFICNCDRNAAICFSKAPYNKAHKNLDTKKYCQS

Molecule	IC50 [1] [nM]	stability at low pH [2]	plasma levels of cholesterol ([3]; high dose (90 mg/kg/day))	plasma levels of triglycerides ([3]; high dose (90 mg/kg/day))	plasma levels of cholesterol ([3]; low dose (25 mg/kg/day))	plasma levels of triglycerides ([3]; low dose (25 mg/kg/day))	apparent permeability [4]	absorption from the GI lumen ([4]; based on Caco-2 assays and pharmokinetic studies)	level of non-absorption from the GI tract into systemic circulation [5] [%]	body weight gain compared to the wild-type control group ([6]; 25 mg/kg/d in diet)	body weight gain, extent of modulation relative to PLA2 (−/−) mice ([6]; 25 mg/kg/d, four weeks)	body weight gain compared to the wild-type control group ([6]; 90 mg/kg/d in diet)	body weight gain, extent of modulation relative to PLA2 (−/−) mice ([6]; 90 mg/kg/d, four weeks)	body weight gain, extent of modulation relative to PLA2 (−/−) mice ([6]; low-dose (25 mg/kg/d), ten weeks)	IC50 [7] [nM]	fasting glucose levels ([8]; week four)	fasting glucose levels ([8]; week ten)
Cc1c(C(=O)C(N)=O)c2c(OCC(=O)O)cccc2n1Cc1ccccc1-c1ccccc1 [ILY-4001, 2-(3-(2-amino-2-oxoacetyl)-1-(biphenyl-2-ylmethyl)-2-methyl-1H-indol-4-yloxy)acetic acid]	~200	stable at low pH	substantially reduced	substantially reduced	substantially reduced	substantially reduced	around 1.66×10^−7 cm/s	relatively low absorption	~72	significantly reduced body weight gains	approaching that achieved in the PLA2 (−/−) mice	significantly reduced body weight gains	approaching that achieved in the PLA2 (−/−) mice	comparable to that achieved in the PLA2 (−/−) mice	~150	moderately beneficial effect	a beneficial effect was not observed
Lucifer Yellow							around 2.82×10^−7+/−0.37×10^−7 cm/s										
